Test results from paper PMC7438329 (Scientific Reports, 2020).
Counter-ions that a name gives are not always drawn. Like-named read-outs stand apart in the source and are kept apart here.

Assays:
zebrafish embryos [1] = type: in vivo, zebrafish (Danio rerio)
Procedure: To this end, three zebrafish embryos were treated with a drug (10 ~ 100 μM) in a well of 96-well plate at the onset of 24 hpf and then assayed for touch responses at 27 and 48 hpf, when zebrafish embryos show tactile-induced short-distance forward movement and escape swimming, respectively.
Two chemical libraries from Kyoto University and Nagoya University, composed of total ~ 1,000 bioactive compounds, were used in this study. The 2 µl of chemical compounds (1 ~ 10 mM) dissolved in DMSO were diluted to 200 µl with E3 medium (5 mM NaCl, 0.17 mM KCl, 0.33 mM CaCl2, 0.33 mM MgSO4) and transferred to 96-well plate. Three zebrafish embryos (24 hpf) were transferred into each well of the plate and incubated in a 28.5 °C incubator. At 27 hpf, three embryos with a small amount of drug solution were transferred to a 90-mm dish containing 15 ml of E3 medium and subjected to touch response using forceps under a dissection microscope Leica MZ16. After this assay, embryos with a small amount of E3 solution were transferred back to the drug solution in 96-well plate and incubated in the 28.5 °C incubator. At 48 hpf, embryos were transferred to a 90-mm dish containing 15 ml of E3 medium again and subjected to the touch response.

zebrafish embryos [2] = type: in vivo, zebrafish (Danio rerio); remark: listed apart in the source
zGlyR α1 = biological target: T1, zGlyR α1 (Danio rerio, UniProt O93430); test: two-electrode voltage-clamp of Xenopus oocytes expressing homomeric zebrafish α1 GlyR; type: cell-based
T1 construct: Full-length cDNAs encoding zebrafish GlyR α1 and βb and human GlyR α1 and β subunits were used in this study; expressed in transfected cells; host or cells: Xenopus laevis oocytes injected with cRNA
T1 sequence (O93430 25-444): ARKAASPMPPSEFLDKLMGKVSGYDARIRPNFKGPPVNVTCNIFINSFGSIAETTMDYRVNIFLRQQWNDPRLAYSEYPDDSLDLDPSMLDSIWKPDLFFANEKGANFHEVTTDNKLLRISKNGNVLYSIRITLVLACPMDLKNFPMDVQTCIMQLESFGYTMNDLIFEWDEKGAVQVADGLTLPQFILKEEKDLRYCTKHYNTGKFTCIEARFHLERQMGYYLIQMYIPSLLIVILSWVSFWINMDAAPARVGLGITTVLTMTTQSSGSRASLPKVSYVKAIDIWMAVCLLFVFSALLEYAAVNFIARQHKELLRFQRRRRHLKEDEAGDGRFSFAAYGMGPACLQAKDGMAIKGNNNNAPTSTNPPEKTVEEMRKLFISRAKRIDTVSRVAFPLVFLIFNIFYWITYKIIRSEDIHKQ
Procedure: (§1) To assess the drug sensitivity of GlyRs, we employed electrophysiology using Xenopus oocytes.
(§2) Full-length cDNAs encoding zebrafish GlyR α1 and βb and human GlyR α1 and β subunits were used in this study. Capped cRNAs for expression in Xenopus laevis oocytes were synthesized from linearized templates using SP6 mMessage mMachine SP6 transcription kit (Thermo Fisher Scientific) as described previously. Oocytes were injected with five femtomoles of cRNA using a Nanoject II (Drummond Scientific). Oocytes were moved to 48-well plates in Barth’s solution (88 mM NaCl, 1 mM KCl, 2.4 mM NaHCO3, 0.33 mM Ca (NO3)2, 0.41 mM CaCl2, 0.82 mM MgSO4, 10 mM HEPES at pH 7.5 with NaOH, supplemented with 50 µg/ml gentamicin and 100 units/ml penicillin/streptomycin) and incubated at 18 °C for 24–48 h prior to recording. Oocyte recording solution (90 mM NaCl, 1 mM KCl, 2 mM CaCl2, 1 mM MgCl2, 10 mM HEPES at pH 7.5 with NaOH) and drug solutions of seven different concentrations were flew into the oocyte chamber using a BPS-8 solution switcher (ALA Scientific). Borosilicate electrodes had resistances of ~ 2.0 MΩ when filed with 3 M KCl. […] Signals were low-pass filtered at 10 Hz, and sampled at 100 Hz. […] Statistical significance was assessed using the pair-wise analysis of variance.

zGlyR α1 + zGlyRβb = zGlyR α1 + zGlyRβb (Danio rerio, UniProt O93430+Q6DC22); test: two-electrode voltage-clamp of Xenopus oocytes expressing heteromeric zebrafish α1βb GlyR; type: cell-based
Sequence of zGlyR α1 + zGlyRβb (Q6DC22 entry or part of it, one chain of several): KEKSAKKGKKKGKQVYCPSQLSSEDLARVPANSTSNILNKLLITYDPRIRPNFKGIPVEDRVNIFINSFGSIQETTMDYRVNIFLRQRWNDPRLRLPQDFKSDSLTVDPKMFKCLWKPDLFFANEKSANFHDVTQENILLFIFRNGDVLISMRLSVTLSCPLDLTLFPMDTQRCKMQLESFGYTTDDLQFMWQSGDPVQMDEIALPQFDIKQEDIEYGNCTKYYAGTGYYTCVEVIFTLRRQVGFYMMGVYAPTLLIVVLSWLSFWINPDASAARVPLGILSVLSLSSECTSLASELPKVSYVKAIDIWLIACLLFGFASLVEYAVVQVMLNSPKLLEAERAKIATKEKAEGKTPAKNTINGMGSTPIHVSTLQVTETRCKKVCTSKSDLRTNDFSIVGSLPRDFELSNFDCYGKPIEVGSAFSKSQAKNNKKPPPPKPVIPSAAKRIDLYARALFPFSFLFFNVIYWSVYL
Procedure: as §1, §2

hGlyR α1 = biological target: T2, hGlyR α1 (Homo sapiens, UniProt P23415); test: two-electrode voltage-clamp of Xenopus oocytes expressing homomeric human α1 GlyR; type: cell-based
T2 construct: Full-length cDNAs encoding zebrafish GlyR α1 and βb and human GlyR α1 and β subunits were used in this study; expressed in transfected cells; host or cells: Xenopus laevis oocytes injected with cRNA
T2 sequence (P23415 29-457): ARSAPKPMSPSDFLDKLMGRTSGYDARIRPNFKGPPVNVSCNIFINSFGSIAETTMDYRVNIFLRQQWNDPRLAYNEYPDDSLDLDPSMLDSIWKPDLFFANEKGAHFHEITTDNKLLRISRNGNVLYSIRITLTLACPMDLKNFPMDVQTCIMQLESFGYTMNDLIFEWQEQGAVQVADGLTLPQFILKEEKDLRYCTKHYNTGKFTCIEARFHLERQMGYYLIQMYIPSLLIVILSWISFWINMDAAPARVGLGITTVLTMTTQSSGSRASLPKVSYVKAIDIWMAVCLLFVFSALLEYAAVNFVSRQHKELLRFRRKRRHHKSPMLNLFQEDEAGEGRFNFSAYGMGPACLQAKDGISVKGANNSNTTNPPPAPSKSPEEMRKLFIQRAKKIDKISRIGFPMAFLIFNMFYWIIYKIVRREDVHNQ
Procedure: as §1
(§3) We also investigated whether niflumic acid blocks human GlyRs.
as §2

hGlyR α1 + hGlyRβb = biological target: T3, hGlyR α1 + hGlyRβb (Homo sapiens, UniProt P23415+P48167); test: two-electrode voltage-clamp of Xenopus oocytes expressing heteromeric human α1β GlyR; type: cell-based
T3 construct: Full-length cDNAs encoding zebrafish GlyR α1 and βb and human GlyR α1 and β subunits were used in this study; expressed in transfected cells; host or cells: Xenopus laevis oocytes injected with cRNA
T3 sequence (P48167 23-497, one chain of several): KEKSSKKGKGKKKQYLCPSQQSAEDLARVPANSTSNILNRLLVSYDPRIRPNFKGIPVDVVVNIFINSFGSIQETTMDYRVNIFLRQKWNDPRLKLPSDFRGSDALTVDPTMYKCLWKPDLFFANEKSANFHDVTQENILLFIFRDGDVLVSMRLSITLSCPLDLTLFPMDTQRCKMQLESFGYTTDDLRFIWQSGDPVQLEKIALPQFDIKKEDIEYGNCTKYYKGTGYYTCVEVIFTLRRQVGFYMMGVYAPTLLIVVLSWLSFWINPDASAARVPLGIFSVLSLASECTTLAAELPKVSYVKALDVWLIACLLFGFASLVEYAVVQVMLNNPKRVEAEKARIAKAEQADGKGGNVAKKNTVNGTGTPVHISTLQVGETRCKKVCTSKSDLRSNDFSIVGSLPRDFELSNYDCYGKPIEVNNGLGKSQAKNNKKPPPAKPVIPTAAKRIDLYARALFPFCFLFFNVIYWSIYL
Procedure: as §1, §3, §2

zebrafish GlyRs = biological target: T4, zebrafish GlyRs (Danio rerio, UniProt O93430); test: cell-based; type: cell-based; settings: rounded value in discussion; read-out: IC50 values of GlyRs expressed in Xenopus oocytes
T4 sequence (O93430 25-444): T1 sequence (O93430 25-444)
Procedure: as §2

zebrafish embryos [3] = test: video recording of zebrafish touch response at 48 hpf in the presence of drug; type: in vivo, zebrafish (Danio rerio); settings: for tactile response of zebrafish embryos at 48 hpf: bath application 30 min: 70 μM strychnine, 5 mM picrotoxin, 200 μM nifedipine, 500 μM niflumic acid; for drug concentration efficient for inducing abnormal touch response: zebrafish embryos 48 hpf, bath application
Excerpt: Tactile-evoked zebrafish movements in the presence of control 1% DMSO or drug were video recorded at 48 hpf using a dissection microscope. Touch responses elicited by tactile stimulation delivered to the tail with forceps were captured with a high-speed CCD camera at 200 frames per second (HAS-220, Ditect) as described previously.

[4] = statement in discussion, no reference given; cited from earlier work
homomeric α GlyRs = settings: mammals; cited from earlier work
heteromeric αβ GlyRs = settings: mammals; cited from earlier work
[5] = drug 10 ~ 100 μM, 1% DMSO, from 24 hpf, touch responses at 27 and 48 hpf
[6] = purchased drugs, several different concentrations
[7] = with 200 μM glycine, mean ± SEM, 10 oocytes
[8] = read-out: IC50 of inhibition of glycine current, with 200 μM glycine, mean ± SEM, 10 oocytes

CCCCCC[C@H]1C(=O)O[C@H](C)[C@H](NC(=O)c2cccc(NC=O)c2O)C(=O)O[C@@H](C)[C@@H]1OC(=O)CC(C)C [Antimycin A]
Response 1st screening (zebrafish embryos [1]; [5]): Weird contraction | Response 2nd screening (zebrafish embryos [2]; [6]): Normal

O=c1oc2ccccc2c(O)c1Cc1c(O)c2ccccc2oc1=O [Dicumarol]
Response 1st screening (zebrafish embryos [1]; [5]): Weird contraction | Response 2nd screening (zebrafish embryos [2]; [6]): Normal

Cc1c(-c2ccccc2)oc2c(C(=O)OCCN3CCCCC3)cccc2c1=O [Flavoxate hydrochloride]
Response 1st screening (zebrafish embryos [1]; [5]): Weird contraction | Response 2nd screening (zebrafish embryos [2]; [6]): Normal

CC(N)CCCC(C)(C)O (stereo not shown) [Heptaminol hydrochloride]
Response 1st screening (zebrafish embryos [1]; [5]): Body shrinkage | Response 2nd screening (zebrafish embryos [2]; [6]): Normal

Cc1cccc(Nc2ccccc2C(=O)O)c1C [Mefenamic acid]
Response 1st screening (zebrafish embryos [1]; [5]): Body shrinkage | Response 2nd screening (zebrafish embryos [2]; [6]): Normal

COC(=O)C1=C(C)NC(C)=C(C(=O)OC)C1c1ccccc1[N+](=O)[O-] [Nifedipine]
Response 1st screening (zebrafish embryos [1]; zebrafish, in vivo): Body shrinkage | IC50 (zGlyR α1): 239 ± 38 µM | Hill coeff of drug-mediated inhibition (zGlyR α1; [7]): 0.5 ± 0.1 | Hill coeff of drug-mediated inhibition (zGlyR α1 + zGlyRβb): 0.4 ± 0.0 | IC50 (zGlyR α1 + zGlyRβb): 162 ± 24 µM | IC50 (hGlyR α1): 171 ± 30 µM | Hill coeff of drug-mediated inhibition (hGlyR α1; [7]): 1.1 ± 0.2 | IC50 (hGlyR α1 + hGlyRβb): 130 ± 27 µM | Hill coeff of drug-mediated inhibition (hGlyR α1 + hGlyRβb; [7]): 0.9 ± 0.2 | IC50 (zebrafish GlyRs): 200 µM | Response 2nd screening (zebrafish embryos [2]; zebrafish, in vivo): Body shrinkage

O=C(O)c1cccnc1Nc1cccc(C(F)(F)F)c1 [Niflumic acid]
Response 1st screening (zebrafish embryos [1]; [5]): Weird contraction | tactile response of zebrafish embryos at 48 hpf (zebrafish embryos [3]): touch-evoked shrinkage of the body | drug concentration efficient for inducing abnormal touch response (zebrafish embryos [3]): 500 µM | IC50 (zGlyR α1): 801 ± 91 µM | Hill coeff of drug-mediated inhibition (zGlyR α1; [7]): 0.5 ± 0.1 | IC50 (zGlyR α1 + zGlyRβb): 426 µM | Hill coeff of drug-mediated inhibition (zGlyR α1 + zGlyRβb; [7]): 0.9 ± 0.1 | IC50 (hGlyR α1): 1070 µM | Hill coeff of drug-mediated inhibition (hGlyR α1; [7]): 1.1 ± 0.2 | IC50 (hGlyR α1 + hGlyRβb): 930 ± 111 µM | Hill coeff of drug-mediated inhibition (hGlyR α1 + hGlyRβb; [7]): 1.1 ± 0.1 | IC50 (zebrafish GlyRs): 400 µM | Response 2nd screening (zebrafish embryos [2]; [6]): Body shrinkage | solubility in water [4]: insoluble to water

Cl.Cl.c1ccc2c3c([nH]c2c1)C1C2CCC(C4CCCNC42)N1CC3 (stereo not shown) [Nitrarine dihydrochloride]
Response 1st screening (zebrafish embryos [1]; [5]): Weird contraction | Response 2nd screening (zebrafish embryos [2]; [6]): Normal

COc1ccc(Cc2nccc3cc(OC)c(OC)cc23)cc1OC [Papaverine hydrochloride]
Response 1st screening (zebrafish embryos [1]; [5]): Weird contraction | Response 2nd screening (zebrafish embryos [2]; [6]): Normal

O=C1C[C@@H]2OCC=C3CN4CC[C@]56c7ccccc7N1[C@H]5[C@H]2[C@H]3C[C@H]46 [Strychnine]
Response 1st screening (zebrafish embryos [1]; [5]): Body shrinkage | tactile response of zebrafish embryos at 48 hpf (zebrafish embryos [3]): bilateral trunk contractions resulting in the shrinkage of the body | Hill coeff of drug-mediated inhibition (zGlyR α1): 0.7 ± 0.2 | Hill coeff of drug-mediated inhibition (hGlyR α1): 1.0 ± 0.1 | IC50 (hGlyR α1): 0.072 ± 0.012 µM | Hill coeff of drug-mediated inhibition (hGlyR α1 + hGlyRβb): 0.8 ± 0.1 | IC50 (hGlyR α1 + hGlyRβb): 0.092 ± 0.019 µM | Response 2nd screening (zebrafish embryos [2]; [6]): Body shrinkage

NCC(=O)O [glycine, Glycine]
Hill coefficient of glycine-dependent gating (zGlyR α1; mean ± SEM, 10 oocytes): 2.7 ± 0.1 | EC50 (zGlyR α1; mean ± SEM, 10 oocytes, read-out: EC50 of glycine-dependent gating): 112 ± 10 µM | Hill coefficient of glycine-dependent gating (zGlyR α1 + zGlyRβb): 2.5 ± 0.2 | EC50 (zGlyR α1 + zGlyRβb; read-out: EC50 of glycine-dependent gating): 163 µM | Hill coefficient of glycine-dependent gating (hGlyR α1): 2.9 ± 0.1 | Hill coefficient of glycine-dependent gating (hGlyR α1 + hGlyRβb): 3.2 ± 0.2

Picrotoxin
Response 1st screening (zebrafish embryos [1]; [5]): failed to identify it | tactile response of zebrafish embryos at 48 hpf (zebrafish embryos [3]): shrinkage of the body | drug concentration efficient for inducing abnormal touch response (zebrafish embryos [3]): 5000 µM | IC50 (zGlyR α1; [8]): 6.1 ± 0.3 µM | Hill coeff of drug-mediated inhibition (zGlyR α1; [7]): 1.2 ± 0.1 | Hill coeff of drug-mediated inhibition (zGlyR α1 + zGlyRβb): 0.9 ± 0.0 | IC50 (zGlyR α1 + zGlyRβb; read-out: IC50 of inhibition of glycine current): 6.4 ± 0.3 µM | IC50 (hGlyR α1; [8]): 7.2 ± 0.9 µM | Hill coeff of drug-mediated inhibition (hGlyR α1; [7]): 0.9 ± 0.1 | IC50 (hGlyR α1 + hGlyRβb; [8]): 94 µM | Hill coeff of drug-mediated inhibition (hGlyR α1 + hGlyRβb; [7]): **0.5 ± 0.1 | IC50 (zebrafish GlyRs): 6 µM | concentration of picrotoxin that blocks homomeric α GlyRs (homomeric α GlyRs): ~ 10 μM | picrotoxin necessary to block heteromeric αβ GlyRs compared with homomeric α GlyRs (heteromeric αβ GlyRs): ten folds more
